Test results as given in patent US20030236301A1, “Liposomal delivery of vitamin E based compounds” (priority 2001, published 2003).
Values joined by “and” are separate entries in the source; they are usually repeats but may differ in a detail not shown here. Equal values may be shown once. “Also recorded” adds a separate entry of the source.

Assays:
[1] = test system: 66 c1.4 GFP murine mammary tumor cells; assay: Tumor growth of 66 c1.4-GFP mammary tumor cells in Balb/c mice (tumor volume); conditions: for inhibition of tumor growth: Example 18: liposomal formulation by aerosol; for reduction of mean tumor volume vs aerosol control: Example 25: liposomal α-TEA/aerosol
Experimental: 66 c1.4-GFP cells were harvested by trypsinization, centrifuged, resuspended in McCoy's media, containing no supplements at a density of 2×10^5/100 μl. Mice were injected in the inguinal area at a point equal distance between the 4th and 5th nipples on the right side using a 23 gauge needle.
50 mice were assigned (10 per group) to aerosol treatment, aerosol control, oral treatment, oral control, or to the no treatment group so that the average tumor volume for all groups were closely matched. […] Tumors were measured using calipers every other day, and volumes were calculated using the formula: volume (mm^3) [width (mm)^2×length (mm)]/2. Body weights were determined weekly.
Balb/c mice were injected with 200,000 66 c1.4 GFP cells subcutaneous in the mammary fat pad area between the 4th and 5th nipple on the right side of the body.
Mice are injected with 200,000 66 c1.4 GFP murine mammary tumor cells as described on day 0. Treatments are initiated on day 9 when tumors reached 1-3 mm in size. Aerosol treatments of α-TEA liposomes (5 mg α-TEA/mouse) are administered daily for 16 days (FIG. 8). Data represent the mean+/−Standard Error (SE), N=10 mice for control and treatment groups.
Balb/c mice were injected s.c. with 2×10^5 66 c1.4-GFP cells in the inguinal area between the 4th and 5th nipple on the right side of the body. When tumors reached 2×2-4×4 mm (9 days after tumor injection), mice were placed into 5 groups ((Group 1: untreated control, Group 2: liposome/aerosol control, Group 3: liposomal α-TEA aerosol treatment, Group 4: peanut oil/gavage control, Group 5: α-TEA in peanut oil/gavage treatment) of 10 mice/group) such that the mean tumor volume of each group was closely matched. Daily treatments were initiated on day 9 after tumor injection.
Balb/c mice were injected with 200,000 66 c1.4 GFP cells subcutaneous in the mammary fat pad area between the 4th and 5th nipple on the right side of the body. […] Animals were treated with α-TEA in liposome, vitamin E succinate in liposome, or control liposome alone via aerosol, 7 days per week, for 21 days. Animals were given 75 mg compound via nebulization per day such that each animal received 36 μg compound per day.
The size of the tumors, 9-21 days after injection of 200,000 66 c1.4 GFP cells between the 4th and 5th nipple on the right side of each mouse, is determined. Treatments are initiated on day 9 after tumor inoculation. Each group consists of n=10+/−SE. Gavage Treatment=Treatments of 5 mg of α-TEA in ethanol and peanut oil (0.1 ml volume) are administered daily starting on day 9 after tumor inoculation and continuing through day 21. Gavage Control=Mice received peanut oil and ethanol alone (0.1 ml volume)/daily, starting on day 9 after tumor inoculation and continuing through day 21. Data (tumor size) are depicted as the mean+/−standard error for days 9, 11, 13, 15, 17, 19, and 21.
Balb/c mice were injected with 200,000 66 c1.4 GFP cells subcutaneous in the mammary fat pad area between the 4th and 5th nipple on the right side of the body. […] Animals were treated with α-TEA in liposome vitamin E succinate in liposome, or control liposome alone via oral gavage, 2 times per day, 7 days per week, for 21 days. Animals were given a total of 6 mg compound per day.

[2] = test system: MDA-MB-435 GFP FL cells; assay: Tumor growth of MDA-MB-435 GFP FL breast cancer cells in nude mice; type: in vivo, Nu/Nu athymic nude mice; conditions: for reduction of tumor growth: Example 32: liposome gavage, 8 mg per day
Experimental: Animals were given a total of 8 mg compound per day. […] Alpha-TEA liposome gavage reduced tumor growth by 68, 75, 78, 79 and 79% on days 27, 29, 31, 33, and 35, respectively (FIG. 15).
Animals were […] 3 ppm methylselenocysteine (MSC) in water, α-TEA in liposome via aerosol, or gavaged 10 mg/kg b.w. trans-resveratrol (t-RES) in first 1:1. EtOH:physiological saline, and starting at day 24, 6.5% EtOH and 93.5% Neobee oil. A combination group was treated with each of the above three compounds, and a control group was treated with aerosolized liposome. 100 μl water, and 50 μl of the t-Res solvent. Animals were treated seven days a week, for 35+ days.

[3] = test system: 66 c1.4 GFP murine mammary tumor cells; assay: Lung and lymph node metastases of 66 c1.4-GFP tumors in Balb/c mice; type: in vivo
Source text: Metastastic lesions in the five lung lobes were counted visually at time of sacrifice. Fluorescent green micro-metastatic cancer cell colonies in the left lung lobe and lymph nodes were counted using a Nikon fluorescence microscope (TE-200) with a 20×objective (200× magnification) and Image-Pro Plus (version 4.1; Media Cybernetics, Silver Spring, Md.) software associated with the microscope. Fluorescent lesions were separated into three size grouping: <5 μm, 5-10 μm and >10 μm.
At sacrifice, lungs were taken, examined visually for metastatic lesions and frozen for analyses of micrometastases by fluorescence.
Use of a Nikon fluorescence microscope and Image-Pro Plus software permitted measurement of green fluorescing micrometastases into three size groupings of <5 μm, 5-10 μm and >10 μm.
At sacrifice, the left lung lobe of each mouse of flash frozen and saves for detection of GFP expressing micrometatstic lesions via fluorescent microscopy.

[4] = test system: 66 c1.4-GFP cells; assay: Apoptosis by morphological evaluation of DAPI-stained nuclei; conditions: three days; for nuclear morphology of DAPI stained cells: 10 μg/ml
Experimental: Briefly, 1×10^5 cells/well in 12-well plates were cultured overnight to permit attachment. […] After treatment, floating cells plus scraped-released adherent cells were pelleted by centrifugation for 5 min at 350×g, washed one time with phosphate buffered saline (PBS; 137 mM NaCl, 2.7 mM KCL, 10.4 mM Na2HPO4, 10.5 mM KH2PO4; pH 7.2), and stained with 2 μg/ml of 4′,6-diamidino-2-phenylindole dihydrochloride (DAPI, Boehringer Mannheim, Indianapolis, Ind.) in 100% methanol for 15 min at 37° C.
Cells were viewed at 400× magnification with a Zeiss ICM 405 fluorescent microscope using a 487701 filter. […] Data are reported as percentage of apoptotic cells per cell population, i.e., number apoptotic cells/total number of cells counted. Three different microscopic fields were examined and 200 cells counted at each location for a minimum of 600 cells counted per slide. Apoptotic data are presented as mean±S.D. for three independently conducted experiments.

[5] = test system: cp-70 human ovarian cancer cells; assay: Apoptosis in cp-70 ovarian cancer cells in vitro; type: cell-based; conditions: treated in culture
[6] = test system: 66 c1.4-GFP cells; assay: Colony-forming assay; conditions: 10 days
Experimental: 66 c1.4-GFP cells were seeded at 600 cells per 35×10 mm tissue culture plate (Nunclon, Rochester, N.Y.) and allowed to adhere over night at 37° C. […] Treatments were left on the cells for 10 days without change of media. After 10 days, media were removed and plates were washed with PBS three times. Cells were stained for 30 min with 1% methylene blue in PBS and colonies >0.5 mm manually counted.

[7] = Serum and tissue levels of α-TEA after liposomal aerosol (HPLC); type: in vivo, mice
Experimental: Eight mice are treated via pulmonary aerosol delivery with 40 mg of α-TEA (5 mg/mouse) in 6 ml liposomes. The mice inhaled the aerosol over a period of 30 minutes until delivery was complete. Mice are sacrificed 0, 2, 6, or 24 hours after the treatment ended. Serum and tissue levels of α-TEA are determined by HPLC analyses (FIG. 7).

[8] = AeroTech II nebulizer; geometric standard deviation 2.04
Experimental: Aerosol was administered to mice as previously described (17).

[9] = test system: A2780 cisplatin-sensitive cell line; assay: Apoptosis in A2780 ovarian cancer cells in vitro; type: cell-based, human; conditions: treated in culture
[10] = test system: Poly (ADP-Ribose) Polymerase (PARP) cleavage in 66 c1.4-GFP cells; assay: Western immunoblot detection of PARP cleavage fragment; type: cell-based, mouse; conditions: 48 hours
Experimental: Poly (ADP-Ribose) Polymerase cleavage was analyzed as an alternate method for detecting apoptosis. 66 c1.4-GFP cells were treated as described above for the DAPI assay. Following the PBS wash, cells were suspended in lysis buffer (1×PBS, 1% Nonidet P-40, 0.5% sodium deoxycholate, 0.1% sodium dodecyl sulfate (SDS), 1 μg/ml leupeptin, 1 μg/ml aprotinin, 1 mM dithiothreitol (DTT), 2 mM sodium orthovanadate, 10 μg/ml phenylmethylsulfonyl fluoride (PMSF)) for 30 min at 4° C., vortexed, and supernatants collected by centrifugation at 15,000×g for 20 min. Protein concentrations were determined using the Bio-Rad (Bradford) protein assay (Bio-Rad Laboratories, Hercules, Calif.), and samples (100 μg/lane) resolved on 7.5% SDS-polyacrylamide gels electrophoresed under reducing conditions.
Proteins were electroblotted onto a nitrocellulose membrane ([…] Optitran BA-S-supported nitrocellulose; Schleicher and Schuell, Keene, N.H.). After transfer, membranes were blocked with blocking buffer [25 mM Tris-HCl (pH 8.0), 125 mM NaCl, 0.5% Tween-20, and 5% non-fat dry milk] for 45 min at room temperature. Immunoblotting was performed using 1 μg of primary rabbit anti-human Poly (ADP-Ribose) Polymerase antibody [PARP (H-250), Santa Cruz Biotechnology, Santa Cruz, Calif.], and horseradish peroxidase-conjugated goat anti-rabbit immunoglobulin was used as the secondary antibody (Jackson Immunoresearch Laboratory, West Grove, Pa.) at a 1:3,000 dilution. Horseradish peroxidase-labeled bands from washed blots were detected by enhanced chemiluminescence (Pierce, Rockford, Ill.) and autoradiography (Kodak BioMax film; Rochester, N.Y.).

[11] = Body weight and long term safety in Balb/c mice; type: in vivo
Experimental: Body weights were determined weekly.
Nine days after tumor inoculation, treatments groups are initiated: Aerosol Treatment (TX)=aerosol delivery of α-TEA liposome (5 mg/mouse)/daily through day 23. Aerosol Control=Aerosol delivery of liposome composition only daily through day 23. Gavage treatment=gavage administration of α-TEA at 5 mg/mouse in ethanol/peanut oil daily through day 23. Gavage control=gavage administration of ethanol/peanut oil only through day 23. Mice were weighed at the initiation of treatment (day 9) and thereafter on days 13, 16, 20, and 23 (FIG. 6). Data are presented as the mean+/−standard deviation.

[12] = Aerosol characteristics: estimated α-TEA deposited in respiratory tract (HPLC, All Glass Impinger); parameters: species or system mouse; conditions: liposomal aerosol, 15 min, estimated deposited fraction 30%
Experimental: HPLC analyses were conducted on α-TEA liposomes recovered from aerosol in the All Glass Impinger (Ace Glass Co., Vineland, N.J.). The delivered dosage=concentration (μg/L)×mouse minute volume (1-min/kg)×duration of delivery (min)×estimated deposited fraction (30%; 17).

[13] = 75 mg in nebulizer/day, day 15 of treatment
[14] = 75 mg in nebulizer/day, day 17 of treatment
[15] = Example 18: liposomal preparation delivered by aerosol
[16] = Example 31: liposomal formulation via gavage, 6 mg per day
[17] = Example 33: liposomal aerosol, α-TEA 5 mg/d, 9NC 2 μg/d in nebulizer, listed as Lip/α-TEA
[18] = liposomal aerosol, at sacrifice

SMILES: CC(=O)Oc1c(C)c(C)c2c(c1C)CCC(C)(CCCC(C)CCCC(C)CCCC(C)C)O2 (racemic) [dl-α tocopherol acetate, dl-α-tocopherol acetate]
- inhibition of tumor growth [1, 13]: 29%
- inhibition of tumor growth [1, 14]: 57%

SMILES: Cc1cc(O)cc2c1O[C@](C)(CCC[C@H](C)CCC[C@H](C)CCCC(C)C)CC2 [RRR-delta tocopherol, RRR-delta-tocopherol]
- inhibition of tumor growth [1, 13]: 25%
- inhibition of tumor growth [1, 14]: 40%

SMILES: Cc1c(C)c2c(c(C)c1O)CC[C@@](C)(CCC[C@H](C)CCC[C@H](C)CCCC(C)C)O2 [RRR-α tocopherol, RRR-α-tocopherol]
- effect on tumor growth [1, 15]: enhanced tumor growth
- tumor volume compared with control mice [1, 15]: not significantly greater

SMILES: CC(C)=CCC/C(C)=C/CC/C(C)=C/CC[C@]1(C)CCc2c(C)c(O)c(C)c(C)c2O1 [RRR-α-tocotrienol]
- inhibition of tumor growth [1, 13]: 34%
- inhibition of tumor growth [1, 14]: 27%

SMILES: Cc1c(O)cc2c(c1C)O[C@](C)(CCC[C@H](C)CCC[C@H](C)CCCC(C)C)CC2 [RRR-γ tocopherol, RRR-γ-tocopherol]
- effect on tumor growth [1, 15]: enhanced tumor growth
- tumor volume compared with control mice [1, 15]: significantly higher

SMILES: Oc1ccc(/C=C/c2cc(O)cc(O)c2)cc1 [t-RES, trans-resveratrol, reference compound]
- increase of tumor volume from the control ([2]; Example 35: day 35): 61.2%

SMILES: Cc1c(C)c2c(c(C)c1OC(=O)CCC(=O)O)CC[C@@](C)(CCC[C@H](C)CCC[C@H](C)CCCC(C)C)O2 [vitamin E succinate, RRR-α-tocopheryl succinate, reference compound]
- reduction of tumor growth ([1]; Example 26: liposome aerosol, 75 mg in nebulizer/day, day 17): 76%
- effect on tumor growth ([1]; Example 30: liposome gavage, 6 mg per day, 21 days): did not reduce tumor growth
- effect on lung metastasis [3, 16]: no effect on lung metastasis
- effect on lymph node micrometastatic lesions (FIG. 14B) [3, 16]: not effective
- apoptosis (percentage of apoptotic cells) ([4]; 2.5 μg/ml): 3%
- apoptosis (percentage of apoptotic cells) ([4]; 5 μg/ml): 5%
- nuclear morphology of DAPI stained cells [4]: exhibited condensation and fragmented DNA

SMILES: Cc1c(C)c2c(c(C)c1OCC(=O)O)CC[C@@](C)(CCC[C@H](C)CCC[C@H](C)CCCC(C)C)O2 [α-TEA, 2,5,7,8-tetramethyl-(2R-(4R,8R,12-trimethyltridecyl)chroman-6-yloxy) Acetic Acid]
- induction of apoptosis [5]: undergo apoptosis
- reduction of mean tumor volume vs aerosol control ([1]; day 13 of treatment): 50%
- reduction of mean tumor volume vs aerosol control ([1]; day 17 of treatment): 61%
- reduction of tumor growth ([1]; Example 26: liposome aerosol, 75 mg in nebulizer/day, day 21): 67%
- tumor weights vs gavage control ([1]; Example 27: gavage, 5 mg in ethanol and peanut oil daily, days 9-21): no significant differences
- mean tumor volume vs gavage control ([1]; Example 28: gavage, 5 mg/day/mouse EtoH/peanut oil formulation): did not differ
- reduction of tumor growth ([1]; Example 30: liposome gavage, 6 mg per day, day 15): 85%
- reduction of tumor growth ([1]; Example 30: liposome gavage, 6 mg per day, day 17): 85%
- reduction of tumor growth ([1]; Example 30: liposome gavage, 6 mg per day, day 21): 70%
- Inhibition (%) Tumor Growth [1, 17]: 65%
- Inhibition (%) Tumor Growth ([1]; Liposomal, Gavage, 3 mg/2× d): 70%
- decrease of colony formation compared to EtOH control ([6]; 1.25 μg/ml): 30%
- colony formation ([6]; 5 μg/ml): No colonies formed
- colony formation ([6]; 10 μg/ml): No colonies formed
- serum and tissue presence of α-TEA ([7]; liposomal aerosol 5 mg/mouse over 30 minutes, 0 hours after treatment ended): found only in the stomach tissue
- serum and tissue presence of α-TEA ([7]; liposomal aerosol 5 mg/mouse, 2 hours after completion of treatment): present in the serum and stomach
- serum and tissue presence of α-TEA ([7]; liposomal aerosol 5 mg/mouse, 6 hours after completion of treatment): present in the liver and stomach
- serum and tissue presence of α-TEA ([7]; liposomal aerosol 5 mg/mouse, 24 hours after completion of treatment): present in the liver and stomach
- mass median aerodynamic diameter of liposome aerosol [8]: 2.01 μm
- lymph node micrometastatic lesions (average) [3, 16]: 3.1±0.8
- Inhibition (%) Metastases Lung [3, 17]: 71%
- Inhibition (%) Metastases Lymphnode [3, 17]: 94%
- Inhibition (%) Metastases Lung ([3]; Liposomal, Aerosol, 5 mg/d, vs aerosol control): 81%
- Inhibition (%) Metastases Lung ([3]; Liposomal, Gavage, 3 mg/2× d): 59%
- Inhibition (%) Metastases Lymphnode ([3]; Liposomal, Gavage, 3 mg/2× d): 56%
- No. Animals/Group with Visible Lung Metastases [3, 18]: 0/10
- No. Visible Lung Tumor Foci/Animal [3, 18]: No visible tumors
- No. Visible Lung Tumor Foci/Animal ([3]; liposomal aerosol, at sacrifice, listed as Aer./Liposome/α-TEA): 0
- induction of apoptosis [9]: undergo apoptosis
- apoptosis (percentage of apoptotic cells) ([4]; 2.5 μg/ml): 5%
- apoptosis (percentage of apoptotic cells) ([4]; 5 μg/ml): 6%
- nuclear morphology of DAPI stained cells [4]: exhibited condensation and fragmented DNA
- PARP cleavage (84 kDa fragment) ([10]; 5 μg/ml): only intact PARP protein was detected
- PARP cleavage (84 kDa fragment) ([10]; 10 μg/ml): evident
- PARP cleavage (84 kDa fragment) ([10]; 20 μg/ml): evident
- reduction of tumor growth ([2]; day 27): 68%
- reduction of tumor growth ([2]; day 29): 75%
- reduction of tumor growth ([2]; day 31): 78%
- reduction of tumor growth ([2]; day 33): 79%
- reduction of tumor growth ([2]; day 35): 79%
- decrease of tumor volume from the control ([2]; Example 35: day 35): 47.8%
- long term adverse effects ([11]; non-tumor bearing mice, aerosol or gavage for 17 days, kept eleven months): did not show any adverse effects
- body weight vs control groups ([11]; tumor-bearing mice, liposome aerosol or gavage in ethanol/peanut oil, 5 mg/mouse daily): no significant weight differences; also recorded: No differences in mean body weights
- α-TEA deposited in the respiratory tract of each mouse each day [12]: approximately 36 μg and ~36 μg
